Biological target: Cholesterol 24-hydroxylase (Homo sapiens, UniProt Q9Y6A2)
Assay: CYP46A1 Enzyme Assay
Procedure: Briefly, in a 384-well plate format, 10 uL per well of an enzyme-substrate mixture of CYP46A1 (5 uM final concentration) and Testosterone ([…]) were dispensed to wells containing test compound. For CYP46A1 titration, 5 uL per well of serially diluted CYP46A1 (concentrations including 10 uM, 5 uM, and 2.5 uM) and Testosterone ([…]) were dispensed. For Testosterone titration, 5 uL per well of serially diluted Testosterone (concentrations including 10 uM, 5 uM, and 2.5 uM) and CYP46A1 (concentration of 5 uM) were dispensed. The plates were centrifuged at 1000 rpm for 30 seconds, and then sealed and incubated at 37 C. for 30 minutes. The plate was removed from the incubator, and then 10 uL per well of NADPH-generating system were dispensed to initiate the reaction. The plates were incubated at 37 C. for 15 minutes, added with 80 uL per well of 100% methanol consisting 1 ng/ml diclofenac as internal standard, and then transferred for HPLC-MS.

Chain of Cholesterol 24-hydroxylase (Q9Y6A2 whole entry): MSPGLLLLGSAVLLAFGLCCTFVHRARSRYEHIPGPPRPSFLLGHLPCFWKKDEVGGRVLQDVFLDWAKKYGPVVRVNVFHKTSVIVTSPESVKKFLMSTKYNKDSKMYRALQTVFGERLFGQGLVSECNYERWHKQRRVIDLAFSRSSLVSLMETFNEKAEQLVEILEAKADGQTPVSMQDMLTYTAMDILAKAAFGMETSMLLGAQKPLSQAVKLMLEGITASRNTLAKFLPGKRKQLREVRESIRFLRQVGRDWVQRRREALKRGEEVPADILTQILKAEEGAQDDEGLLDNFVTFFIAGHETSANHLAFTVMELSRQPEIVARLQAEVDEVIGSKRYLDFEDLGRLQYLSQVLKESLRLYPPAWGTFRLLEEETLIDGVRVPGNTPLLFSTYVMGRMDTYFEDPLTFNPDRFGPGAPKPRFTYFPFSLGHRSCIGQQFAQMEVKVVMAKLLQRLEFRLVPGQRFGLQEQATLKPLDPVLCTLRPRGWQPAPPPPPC

| SMILES | IC50 |
| --- | --- |
| O=C(c1cccnc1-c1ccncn1)N1CCC(F)([C@H](O)c2ccc(C(F)(F)F)cc2)CC1 [US20230312522, Compound 13] | < 100 nM |
| O=C(c1cccnc1-c1ccncn1)N1CCC(F)(Cc2ccc(C(F)(F)F)cn2)CC1 [US20230312522, Compound 22] | < 100 nM |
| O=C(c1cccnc1-c1ccncc1)N1CCC(F)(Cc2ccc(C(F)(F)F)nc2)CC1 [US20230312522, Compound 35] | < 100 nM |
| O=C(c1cccnc1-c1ccncc1)N1CCC(F)(Cc2cnccn2)CC1 [US20230312522, Compound 45] | > 1000 nM |
| O=C(c1cccnc1-c1ccncc1)N1CCC(F)(Cc2ccc(CF)nc2)CC1 [US20230312522, Compound 54] | < 100 nM |
| O=C(c1cccnc1-c1ccncn1)N1CCC(F)(Cc2ccc(C(F)(F)F)nc2)CC1 [US20230312522, Compound 23] | < 100 nM |
| O=C(c1cccnc1-c1ccncn1)N1CCC(F)(Cc2ccc(F)cc2F)CC1 [US20230312522, Compound 19] | < 100 nM |
| Cc1ccc(CC2(F)CCN(C(=O)c3cccnc3-c3ccncc3)CC2)nc1 [US20230312522, Compound 43] | < 100 nM |
| O=C(c1cccnc1-c1ccncn1)N1CCC(F)(Cc2c(F)cc(F)cc2F)CC1 [US20230312522, Compound 26] | < 100 nM |
| O=C(c1cccnc1-c1ccncc1)N1CCC(F)(Cc2ccc(Cl)nc2)CC1 [US20230312522, Compound 47] | < 100 nM |
| O=C(c1cccnc1-c1ccncn1)N1CCC(F)(Cc2cccc(C(F)(F)F)n2)CC1 [US20230312522, Compound 24] | < 100 nM |
| C[C@H](c1cc(F)cc(F)c1)C1(F)CCN(C(=O)c2cccnc2-c2ccncn2)CC1 [US20230312522, Compound 31] | < 100 nM |
| O=C(c1cccnc1-c1ccncn1)N1CCC(F)(Cc2cc(C(F)(F)F)c(Cl)cn2)CC1 [US20230312522, Compound 39] | < 100 nM |
| C[C@@H](c1ccc(C(F)(F)F)cc1)C1(F)CCN(C(=O)c2cccnc2-c2ccncn2)CC1 [US20230312522, Compound 34] | < 100 nM |
| Cc1cnc(CC2(F)CCN(C(=O)c3cccnc3-c3ccncc3)CC2)cn1 [US20230312522, Compound 52] | < 100 nM |
| O=C(c1cccnc1-c1ccncn1)N1CCC(F)(Cc2ccc(Cl)cn2)CC1 [US20230312522, Compound 18] | < 100 nM |
| O=C(c1cccnc1-c1ccncn1)N1CCC(F)(Cc2ccc(Cl)cc2)CC1 [US20230312522, Compound 29] | < 100 nM |
| O=C(c1cccnc1-c1ccncn1)N1CCC(F)(c2ccccc2)CC1 [US20230312522, Compound 8] | > 1000 nM |
| C[C@H](c1ccc(C(F)(F)F)cc1)C1(F)CCN(C(=O)c2cccnc2-c2ccncn2)CC1 [US20230312522, Compound 33] | < 100 nM |
| O=C(c1cccnc1-c1ccncc1)N1CCC(F)(Cc2ccc(C(F)F)nc2)CC1 [US20230312522, Compound 55] | < 100 nM |
| O=C(c1cccnc1-c1ccncn1)N1CCC(F)(Cc2cc(F)cc(F)c2)CC1 [US20230312522, Compound 20] | < 100 nM |
| Cc1ccc(CC2(F)CCN(C(=O)c3cccnc3-c3ccncc3)CC2)cn1 [US20230312522, Compound 57] | < 100 nM |
| O=C(c1cccnc1-c1ccncn1)N1CCC(F)(Cc2ccc(CF)nc2)CC1 [US20230312522, Compound 51] | < 100 nM |
| O=C(c1cccnc1-c1ccncc1)N1CCC(F)(Cc2ccc(Cl)cn2)CC1 [US20230312522, Compound 38] | < 100 nM |
| O=C(c1cccnc1-c1ccncn1)N1CCC(F)([C@@H](O)c2ccc(C(F)(F)F)cc2)CC1 [US20230312522, Compound 14] | < 100 nM |
| O=C(c1cccnc1-c1ccncn1)N1CCC(F)(Cc2ccc(Cl)nc2)CC1 [US20230312522, Compound 46] | < 100 nM |
| O=C(c1cccnc1-c1ccncn1)N1CCC(F)(Cc2ccc(C(F)(F)F)cc2F)CC1 [US20230312522, Compound 28] | < 100 nM |
| C[C@@H](c1cc(F)cc(F)c1)C1(F)CCN(C(=O)c2cccnc2-c2ccncn2)CC1 [US20230312522, Compound 32] | < 100 nM |
| O=C(c1cccnc1-c1ccncn1)N1CCC(F)(Cc2ncc(C(F)(F)F)cn2)CC1 [US20230312522, Compound 56] | > 1000 nM |

— BindingDB's records for patent US20230312522 (Sage Therapeutics, 2023)
